Holding throughout (format): in vivo
One experiment relates to Lucilia cuprina larvae. Nature of the experiment: Lucilia cuprina test (LUCICU). The settings on record: 100 ppm, after 2 days. A digest of the protocol: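 Horsemeat treated with compound (DMSO concentrate diluted in water) was populated with about 20 L. cuprina larvae. Percent kill was scored after 2 days, from 100% (all larvae dead) to 0% (none dead).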
Experiment [1] has as its system cat fleas (Ctenocephalides felis, fully sensitive laboratory strain). The experiment is described as follows: Contact test against fleas in-vitro (CTECFE contact). The conditions noted are these: for activity against cat fleas: 500 g/ha, after 48 h. A digest of the protocol:
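Test tubes coated from acetone solutions by rotation, top concentration 500 g/ha (500 μg/dm^2) on tube surface, serial 1:5 dilutions. 10-20 CO2-anesthetized adult fleas held at room temperature for 24 and 48 h. Activity scored versus acetone control: knock-down or death of all fleas = 100%.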

The subject of the next experiment is Boophilus microplus. The experiment is described as follows: Boophilus microplus test (BOOPMI injection). The conditions noted are these: for activity (100% = none of the ticks has laid any fertile eggs): 20 μg/animal, injection into the abdomen, after 7 days. A digest of the protocol: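 Ticks injected in the abdomen with compound in DMSO, then held in a climatized room. Effect scored after 7 days as % reduction in fertile egg laying, 100% meaning no fertile eggs.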

Experiment [2] has as its system green peach aphid (Myzus persicae). The experiment is described as follows: Myzus test (MYZUPE spray treatment). The settings on record: 500 g/ha, spray, after 6 days; for pest or weed control at 500 g/ha: Myzus persicae, 144 h, read-out: activity (aphids killed). An outline of the steps: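 Chinese cabbage leaf discs infested with all aphid stages were sprayed with compound in acetone/DMF with emulsifier, diluted in emulsifier-containing water. Mortality in % assessed after 6 days (100% = all aphids killed).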

The test system of experiment [3] is Anopheles gambiae (homocygus kdr). The experiment is described as follows: Anopheles test (ANPHGB surface treatment). The conditions noted are these: for knock-down activity: 100 mg/m^2, two hours after contact, exposition 30 minutes; for mortality at 100 mg/m2: Anopheles gambiae, read-out: activity (mortality in %); for Kill rate in % after 24 hours: active compound concentration 1.6 g/ha. A digest of the protocol:
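Compound dissolved in acetone at 2 mg/ml, pipetted onto glazed tile and dried; adult kdr-homozygous mosquitoes exposed on the tile for 30 min. Knock-down (%) read 2 h and mortality (%) 24 h after contact.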

The test system of the next experiment is Aedes aegypti. Nature of the experiment: Aedes test (AEDSAE surface treatment). The settings on record: for knock-down activity: 100 mg/m^2, two hours after contact, exposition 30 minutes; for mortality at 100 mg/m2: Aedes aegypti, read-out: activity (mortality in %); for Kill rate in % after 24 h: active compound concentration 1.6 g/ha. An outline of the steps:
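Compound dissolved in acetone (2 mg/ml) and dried onto a glazed tile; adult mosquitoes exposed for 30 minutes. Knock-down % scored at 2 hours and mortality % at 24 hours after contact (100% = all killed).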

Experiment [4] deals with caterpillars of the army worm (Spodoptera frugiperda). The experiment is described as follows: Spodoptera frugiperda test (SPODFR spray treatment). The conditions noted are these: 500 g/ha, spray, after 7 days; for pest or weed control at 500 g/ha: Spodoptera frugiperda, 168 h, read-out: activity (caterpillars killed). A digest of the protocol: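 Maize leaf discs sprayed with compound formulated in acetone/dimethylformamide plus alkylaryl polyglycol ether emulsifier and diluted in water, then infested with Spodoptera frugiperda caterpillars once dry. Mortality scored after 7 days as % activity, where 100% means all caterpillars killed.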

Experiment [5] concerns greenhouse red spider mite (Tetranychus urticae). Nature of the experiment: Tetranychus test; OP-resistant (TETRUR spray treatment). The conditions noted are these: 500 g/ha, spray, after 6 days; for pest or weed control at 500 g/ha: Tetranychus urticae, 144 h, read-out: activity (spider mites killed). A digest of the protocol: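 Bean leaf discs infested with all stages of OP-resistant Tetranychus urticae were sprayed with compound in acetone/DMF with alkylaryl polyglycol ether emulsifier, diluted in emulsifier-water. Mortality was scored after 6 days: 100% means all mites killed, 0% none.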

Experiment [6] deals with larvae of the mustard beetle (Phaedon cochleariae). The experiment is described as follows: Phaedon test (PHAECO spray treatment). The conditions noted are these: 500 g/ha, spray, after 7 days; for pest or weed control at 500 g/ha: Phaedon cochleariae, 168 h, read-out: activity (beetle larvae killed). A digest of the protocol:
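Chinese cabbage leaf discs sprayed with compound formulated in acetone/dimethylformamide with alkylaryl polyglycol ether emulsifier, diluted in emulsifier-containing water to the desired concentration. After drying, discs were populated with mustard beetle larvae.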

As a reminder, the mortality is the percentage killed. `Cc1ccc(N=C2C(=CSc3ccc(F)cc3)CCc3ccccc32)cc1` [Example 1-9]: the “activity (kill in %)” value with Lucilia cuprina larvae is reported as 100%. The “activity against cat fleas” value in experiment [1] was 100%. Further, in experiment [1] (active compound concentration 0.032 g/ha), the “Kill rate in % after 2 days” value was found to be 100%. For the same compound, the “activity (100% = none of the ticks has laid any fertile eggs)” value in the experiment on Boophilus microplus was 100%. For the same compound, the pest or weed control at 500 g/ha in experiment [2], in [4], in [5] and in experiment [6] was 100% each time. Moreover, the knock-down activity (in experiment [3]; with Aedes aegypti) was 100% each time. Moreover, the mortality at 100 mg/m2 (in experiment [3]; in the experiment with Aedes aegypti) was 100% each time. In addition, in [3], the “Kill rate in % after 24 hours” value stood at 100%. Besides, the “Kill rate in % after 24 h” value in the experiment with Aedes aegypti was determined as 75%.
For the compound `Cc1ccc(N=C2C(=CSc3ccc(F)cc3)CCc3cc(F)ccc32)cc1` [Example 1-16], the “activity (kill in %)” value with Lucilia cuprina larvae is 100%. For the same compound, in experiment [1], the “activity against cat fleas” value is given as 100%. The “activity (100% = none of the ticks has laid any fertile eggs)” value in the experiment with Boophilus microplus is reported as 100%. Also, the “Kill rate in % after 7 days” value in the experiment on Boophilus microplus (active compound concentration 0.16 μg/animal) worked out at 90%. For the same compound, the pest or weed control at 500 g/ha in [2], in experiment [4], in experiment [5] and in experiment [6] was 100% each time. For the same compound, the knock-down activity (in experiment [3]; in the experiment on Aedes aegypti) was 100% throughout. For the same compound, the mortality at 100 mg/m2 (in experiment [3]; in the experiment with Aedes aegypti) was 100% each time. In [3], the “Kill rate in % after 24 hours” value came to 80%. For the same compound, the “Kill rate in % after 24 h” value in the experiment on Aedes aegypti amounted to 90%.
Regarding `Cc1ccc(N=C2C(=CSc3ccc(C)cc3)CCc3ccccc32)cc1` [Example 1-28], the “activity (kill in %)” value with Lucilia cuprina larvae is on record as 100%. Also, the “activity against cat fleas” value in experiment [1] is 100%. Also, in the experiment on Boophilus microplus, the “activity (100% = none of the ticks has laid any fertile eggs)” value is on record as 100%. Also, the “activity (aphids killed)” value in experiment [2] came to 90%. Moreover, the knock-down activity worked out at 100% in [3] and 80% in the experiment with Aedes aegypti. The “activity (caterpillars killed)” value in experiment [4] was determined as 100%. The “activity (spider mites killed)” value in [5] came out at 100%. The “activity (beetle larvae killed)” value in [6] is recorded as 100%.
As for `Cc1ccc(N=C2C(=CSc3ccc(F)cc3)CSc3ccccc32)cc1` [Example 1-35], the “activity (kill in %)” value in the experiment on Lucilia cuprina larvae turned out to be 100%. Further, in experiment [1], the “activity against cat fleas” value came out at 100%. Further, the “activity (100% = none of the ticks has laid any fertile eggs)” value with Boophilus microplus came out at 100%. Also, the pest or weed control at 500 g/ha in experiment [2], in [4], in experiment [5] and in experiment [6] was 100% throughout. The knock-down activity in [3] is listed as 100%; in the experiment with Aedes aegypti, 90%. Besides, the mortality at 100 mg/m2 (in [3]; in the experiment with Aedes aegypti) was 100% each time. The “Kill rate in % after 24 hours” value in experiment [3] is 100%. For the same compound, the “Kill rate in % after 24 h” value in the experiment with Aedes aegypti turned out to be 100%.
On to `Cc1ccc(N=C2C(=CSc3ccc(F)cc3)C(C)c3ccccc32)cc1` (centres unmarked) [Example 1-57], for which the “activity (kill in %)” value with Lucilia cuprina larvae came to 100%. In experiment [1], the “activity against cat fleas” value is listed as 100%. The “activity (100% = none of the ticks has laid any fertile eggs)” value with Boophilus microplus worked out at 100%. Also, the pest or weed control at 500 g/ha in experiment [2], in experiment [4], in experiment [5] and in [6] was 100% in each case. The knock-down activity in experiment [3] is 80%; in the experiment with Aedes aegypti it was 100%. For the same compound, the mortality at 100 mg/m2 (in [3]; in the experiment on Aedes aegypti) was 100% throughout. For the same compound, the “Kill rate in % after 24 hours” value in experiment [3] stood at 100%.

Source of the values: US9055743B2, “Alpha, beta-unsaturated imines” (BAYER INTELLECTUAL PROPERTY GMBH, priority 2010, dated 2015).
